# In PubChem BioAssay (NCI):
# “And” between values parts separate entries of the source, which are not always exact repeats. Equal entries are not always repeated.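 Results reflect a 48-hour exposure of cells in 96-well plates to compound at five concentrations. Definition used: TGI = concentration required for complete inhibition of growth.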
# Legend:
# Assay in all cases: growth of human tumour cells (NCI), 48 h
# NCI-H522 lung = test system: NCI-H522 lung
# NCI-H460 lung = test system: NCI-H460 lung
# UACC-257 melanoma = test system: UACC-257 melanoma
# XF 498 CNS = test system: XF 498 CNS
# MALME-3M melanoma = test system: MALME-3M melanoma
# A549 NSCLC = test system: A549 NSCLC
# KM12 colon = test system: KM12 colon
# OVCAR-3 ovarian = test system: OVCAR-3 ovarian
# EKVX NSCLC = test system: EKVX NSCLC
# SNB-78 CNS = test system: SNB-78 CNS
# OVCAR-5 ovarian = test system: OVCAR-5 ovarian
# SN12C renal = test system: SN12C renal
# DMS 273 small cell lung = test system: DMS 273 small cell lung
# M14 melanoma = test system: M14 melanoma
# SF-539 CNS = test system: SF-539 CNS
# SF-295 CNS = test system: SF-295 CNS
# COLO 205 colon = test system: COLO 205 colon
# SK-OV-3 ovarian = test system: SK-OV-3 ovarian
# SK-MEL-5 melanoma = test system: SK-MEL-5 melanoma
# HCT-116 colon = test system: HCT-116 colon
# K-562 leukemia = test system: K-562 leukemia
# RPMI-8226 leukemia = test system: RPMI-8226 leukemia
# SNB-75 CNS = test system: SNB-75 CNS
# SNB-19 CNS = test system: SNB-19 CNS
# 786-0 renal = test system: 786-0 renal
# OVCAR-4 ovarian = test system: OVCAR-4 ovarian
# M19-MEL melanoma = test system: M19-MEL melanoma
# OVCAR-8 ovarian = test system: OVCAR-8 ovarian
# CCRF-CEM leukemia = test system: CCRF-CEM leukemia
# HL-60(TB) leukemia = test system: HL-60(TB) leukemia
# TK-10 renal = test system: TK-10 renal
# HOP-92 NSCLC = test system: HOP-92 NSCLC
# HOP-62 NSCLC = test system: HOP-62 NSCLC
# DMS 114 small cell lung = test system: DMS 114 small cell lung
# HOP-18 NSCLC = test system: HOP-18 NSCLC
# SK-MEL-28 melanoma = test system: SK-MEL-28 melanoma
# ACHN renal = test system: ACHN renal
# LXFL 529 NSCLC = test system: LXFL 529 NSCLC
# HT29 colon = test system: HT29 colon
# HCT-15 colon = test system: HCT-15 colon
# IGROV1 ovarian = test system: IGROV1 ovarian
# HCC-2998 colon = test system: HCC-2998 colon
# U251 CNS = test system: U251 CNS
# DLD-1 colon = test system: DLD-1 colon
# NCI-H23 lung = test system: NCI-H23 lung
# UO-31 renal = test system: UO-31 renal
# NCI-H226 lung = test system: NCI-H226 lung
# SF-268 CNS = test system: SF-268 CNS
# SK-MEL-2 melanoma = test system: SK-MEL-2 melanoma
# MOLT-4 leukemia = test system: MOLT-4 leukemia
# BT-549 breast = test system: BT-549 breast
# HS 578T breast = test system: HS 578T breast
# LOX IMVI melanoma = test system: LOX IMVI melanoma
# SW-620 colon = test system: SW-620 colon
# DU-145 prostate = test system: DU-145 prostate
# NCI/ADR-RES ovarian = test system: NCI/ADR-RES ovarian
# CAKI-1 renal = test system: CAKI-1 renal
# SR leukemia = test system: SR leukemia
# T-47D breast = test system: T-47D breast
# MDA-N = test system: MDA-N
# UACC-62 melanoma = test system: UACC-62 melanoma
# PC-3 prostate = test system: PC-3 prostate
# RXF 393 renal = test system: RXF 393 renal
# MCF7 breast = test system: MCF7 breast
# A498 renal = test system: A498 renal
# MDA-MB-231 breast = test system: MDA-MB-231 breast
# MDA-MB-435 = test system: MDA-MB-435
smiles,measurement,setting,value
O=S(Cc1ccccc1)c1nc2ccccc2nc1-c1cccs1 (stereo not given),TGI,NCI-H522 lung,3.4 µM
same,TGI,NCI-H460 lung,45.4 µM
same,TGI,UACC-257 melanoma,26.5 µM
same,TGI,XF 498 CNS,12.3 µM
same,TGI,MALME-3M melanoma,19.4 µM
same,TGI,A549 NSCLC,30.7 µM
same,TGI,KM12 colon,34.5 µM
same,TGI,OVCAR-3 ovarian,24 µM
same,TGI,EKVX NSCLC,60.6 µM
same,TGI,SNB-78 CNS,56.2 µM
same,TGI,OVCAR-5 ovarian,31.9 µM
same,TGI,SN12C renal,28.1 µM
same,TGI,DMS 273 small cell lung,22.7 µM
same,TGI,M14 melanoma,25.4 µM
same,TGI,SF-539 CNS,30 µM
same,TGI,SF-295 CNS,52.9 µM
same,TGI,COLO 205 colon,42.7 µM
same,TGI,SK-OV-3 ovarian,85.4 µM
same,TGI,SK-MEL-5 melanoma,23.7 µM
same,TGI,HCT-116 colon,23.3 µM
same,TGI,K-562 leukemia,> 100 µM
same,TGI,RPMI-8226 leukemia,68 µM
same,TGI,SNB-75 CNS,36.1 µM
same,TGI,SNB-19 CNS,39.4 µM
same,TGI,786-0 renal,23.4 µM
same,TGI,OVCAR-4 ovarian,24.6 µM
same,TGI,M19-MEL melanoma,22.6 µM
same,TGI,OVCAR-8 ovarian,38.8 µM
same,TGI,CCRF-CEM leukemia,> 100 µM
same,TGI,HL-60(TB) leukemia,> 100 µM
same,TGI,TK-10 renal,28 µM
same,TGI,HOP-92 NSCLC,29.8 µM
same,TGI,HOP-62 NSCLC,37.4 µM
same,TGI,DMS 114 small cell lung,5.91 µM
same,TGI,HOP-18 NSCLC,29.5 µM
same,TGI,SK-MEL-28 melanoma,23.9 µM
same,TGI,ACHN renal,26.9 µM
same,TGI,LXFL 529 NSCLC,12.8 µM
same,TGI,HT29 colon,27.1 µM
same,TGI,HCT-15 colon,25.5 µM
same,TGI,IGROV1 ovarian,29.2 µM
same,TGI,HCC-2998 colon,26.1 µM
same,TGI,U251 CNS,33.5 µM
same,TGI,DLD-1 colon,24.6 µM
same,TGI,NCI-H23 lung,33.8 µM
same,TGI,UO-31 renal,41 µM
same,TGI,NCI-H226 lung,16.7 µM
same,TGI,SF-268 CNS,51.4 µM
same,TGI,SK-MEL-2 melanoma,24.2 µM
same,TGI,MOLT-4 leukemia,> 100 µM
O=C(O)c1c2c(cc3c1CC(Cc1ccccc1)C3=O)CCC2 (stereo not given),TGI,NCI-H522 lung,> 100 µM
same,TGI,BT-549 breast,> 100 µM
same,TGI,NCI-H460 lung,> 100 µM
same,TGI,UACC-257 melanoma,> 100 µM
same,TGI,MALME-3M melanoma,> 100 µM
same,TGI,HS 578T breast,> 100 µM
same,TGI,LOX IMVI melanoma,> 100 µM
same,TGI,A549 NSCLC,38 µM
same,TGI,KM12 colon,> 100 µM
same,TGI,OVCAR-3 ovarian,> 100 µM
same,TGI,EKVX NSCLC,> 100 µM
same,TGI,OVCAR-5 ovarian,> 100 µM
same,TGI,SN12C renal,> 100 µM
same,TGI,M14 melanoma,> 100 µM
same,TGI,SF-539 CNS,> 100 µM
same,TGI,SF-295 CNS,> 100 µM
same,TGI,SW-620 colon,> 100 µM
same,TGI,COLO 205 colon,> 100 µM
same,TGI,SK-OV-3 ovarian,> 100 µM
same,TGI,SK-MEL-5 melanoma,> 100 µM
same,TGI,HCT-116 colon,> 100 µM
same,TGI,DU-145 prostate,> 100 µM
same,TGI,K-562 leukemia,> 100 µM
same,TGI,RPMI-8226 leukemia,> 100 µM
same,TGI,NCI/ADR-RES ovarian,> 100 µM
same,TGI,CAKI-1 renal,> 100 µM
same,TGI,SR leukemia,> 100 µM
same,TGI,SNB-75 CNS,> 100 µM
same,TGI,T-47D breast,> 100 µM
same,TGI,MDA-N,> 100 µM
same,TGI,SNB-19 CNS,> 100 µM
same,TGI,UACC-62 melanoma,> 100 µM
same,TGI,786-0 renal,> 100 µM
same,TGI,OVCAR-4 ovarian,> 100 µM
same,TGI,OVCAR-8 ovarian,> 100 µM
same,TGI,PC-3 prostate,> 100 µM
same,TGI,CCRF-CEM leukemia,> 100 µM
same,TGI,HL-60(TB) leukemia,42.3 µM
same,TGI,TK-10 renal,> 100 µM
same,TGI,HOP-92 NSCLC,> 100 µM
same,TGI,HOP-62 NSCLC,> 100 µM
same,TGI,RXF 393 renal,> 100 µM
same,TGI,MCF7 breast,> 100 µM
same,TGI,SK-MEL-28 melanoma,> 100 µM
same,TGI,ACHN renal,> 100 µM
same,TGI,HT29 colon,> 100 µM
same,TGI,HCT-15 colon,> 100 µM
same,TGI,A498 renal,> 100 µM
same,TGI,IGROV1 ovarian,> 100 µM
same,TGI,HCC-2998 colon,> 100 µM
same,TGI,U251 CNS,> 100 µM
same,TGI,NCI-H23 lung,> 100 µM
same,TGI,UO-31 renal,30.5 µM
same,TGI,NCI-H226 lung,> 100 µM
same,TGI,SF-268 CNS,> 100 µM
same,TGI,MDA-MB-231 breast,> 100 µM
same,TGI,SK-MEL-2 melanoma,> 100 µM
same,TGI,MDA-MB-435,> 100 µM
same,TGI,MOLT-4 leukemia,> 100 µM
COc1ccc(C2=C[C@]3(O)CCCN3C[C@@H]2c2ccc(OC)c(OC)c2)cc1,TGI,NCI-H522 lung,< 0.0001 µM
same,TGI,XF 498 CNS,0.449 µM
same,TGI,MALME-3M melanoma,< 0.0001 µM
same,TGI,SNB-78 CNS,0.0338 µM
same,TGI,SN12C renal,> 100 µM
same,TGI,DMS 273 small cell lung,0.000172 µM
same,TGI,M14 melanoma,< 0.0001 µM
same,TGI,SW-620 colon,0.00183 µM
same,TGI,COLO 205 colon,< 0.0001 µM
same,TGI,SK-MEL-5 melanoma,< 0.0001 µM
same,TGI,HCT-116 colon,0.00112 µM
same,TGI,RPMI-8226 leukemia,13.9 µM
same,TGI,CAKI-1 renal,0.00162 µM
same,TGI,SR leukemia,< 0.0001 µM
same,TGI,OVCAR-4 ovarian,0.0384 µM
same,TGI,M19-MEL melanoma,0.000396 µM
same,TGI,HL-60(TB) leukemia,< 0.0001 µM
same,TGI,TK-10 renal,0.611 µM
same,TGI,HOP-92 NSCLC,0.000527 µM
same,TGI,RXF 393 renal,0.0223 µM
same,TGI,HOP-18 NSCLC,0.000214 µM
same,TGI,SK-MEL-28 melanoma,0.00216 µM and 0.0197 µM
same,TGI,ACHN renal,0.00185 µM
same,TGI,HCC-2998 colon,0.101 µM
same,TGI,NCI-H23 lung,0.000105 µM
same,TGI,NCI-H226 lung,< 0.0001 µM
same,TGI,SK-MEL-2 melanoma,0.000164 µM
Oc1ccc2ccccc2c1N=Nc1cccc2ccccc12,TGI,NCI-H522 lung,> 100 µM
same,TGI,BT-549 breast,> 100 µM
same,TGI,NCI-H460 lung,> 100 µM
same,TGI,UACC-257 melanoma,> 100 µM
same,TGI,MALME-3M melanoma,> 100 µM
same,TGI,HS 578T breast,> 100 µM and 77.7 µM
same,TGI,LOX IMVI melanoma,> 100 µM
same,TGI,A549 NSCLC,> 100 µM
same,TGI,KM12 colon,> 100 µM
same,TGI,OVCAR-3 ovarian,> 100 µM
same,TGI,EKVX NSCLC,> 100 µM
same,TGI,OVCAR-5 ovarian,> 100 µM
same,TGI,SN12C renal,> 100 µM
same,TGI,M14 melanoma,> 100 µM
same,TGI,SF-539 CNS,76.3 µM
same,TGI,SF-295 CNS,> 100 µM
same,TGI,SW-620 colon,> 100 µM
same,TGI,COLO 205 colon,> 100 µM
same,TGI,SK-OV-3 ovarian,> 100 µM
same,TGI,SK-MEL-5 melanoma,> 100 µM
same,TGI,HCT-116 colon,> 100 µM
same,TGI,DU-145 prostate,> 100 µM
same,TGI,K-562 leukemia,> 100 µM
same,TGI,RPMI-8226 leukemia,> 100 µM
same,TGI,NCI/ADR-RES ovarian,> 100 µM
same,TGI,CAKI-1 renal,> 100 µM
same,TGI,SR leukemia,> 100 µM
same,TGI,SNB-75 CNS,> 100 µM and 80.4 µM
same,TGI,T-47D breast,> 100 µM
same,TGI,MDA-N,> 100 µM
same,TGI,SNB-19 CNS,> 100 µM
same,TGI,UACC-62 melanoma,> 100 µM
same,TGI,786-0 renal,> 100 µM
same,TGI,OVCAR-4 ovarian,> 100 µM
same,TGI,OVCAR-8 ovarian,> 100 µM
same,TGI,PC-3 prostate,> 100 µM
same,TGI,CCRF-CEM leukemia,> 100 µM
same,TGI,HL-60(TB) leukemia,> 100 µM
same,TGI,TK-10 renal,> 100 µM
same,TGI,HOP-92 NSCLC,> 100 µM
same,TGI,HOP-62 NSCLC,> 100 µM
same,TGI,RXF 393 renal,> 100 µM
same,TGI,MCF7 breast,> 100 µM
same,TGI,SK-MEL-28 melanoma,> 100 µM
same,TGI,ACHN renal,> 100 µM
same,TGI,HT29 colon,> 100 µM
same,TGI,HCT-15 colon,> 100 µM
same,TGI,A498 renal,> 100 µM
same,TGI,IGROV1 ovarian,> 100 µM
same,TGI,HCC-2998 colon,> 100 µM
same,TGI,U251 CNS,> 100 µM
same,TGI,NCI-H23 lung,> 100 µM
same,TGI,UO-31 renal,> 100 µM
same,TGI,NCI-H226 lung,> 100 µM
same,TGI,SF-268 CNS,> 100 µM
same,TGI,MDA-MB-231 breast,> 100 µM
same,TGI,SK-MEL-2 melanoma,> 100 µM
same,TGI,MDA-MB-435,> 100 µM
same,TGI,MOLT-4 leukemia,> 100 µM
